Active and inactive are the calls of the source.
Key:
[1] = target: T1, Beta-galactosidase (Escherichia coli, UniProt Q8VNN2); experiment: PubChem AID 485352; type: functional
[2] = target: Type-1 angiotensin II receptor (Homo sapiens, UniProt P30556); experiment: AT1 receptor antagonists, dose response, selectivity assay for APJ receptor antagonist project, cell-based, uHTS hits (AID 463214); type: functional;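 further: antagonist potency against angiotensin II stimulated AT1 response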
[3] = target: T2, Delta-type opioid receptor (Homo sapiens, UniProt P41143); experiment: HTS Image-Based Screen for Antagonists of the DOR Receptor. [Related pubchem assays (depositor defined):AID1777, AID1785, AID1786, AID2133]; type: functional
[4] = target: Mu-type opioid receptor (Homo sapiens, UniProt P35372); experiment: HTS Image-Based Screen for Agonists of the MOR Receptor. [Related pubchem assays (depositor defined):AID1777, AID1785, AID1786, AID2133]; type: functional;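 further: imaging of beta-arrestin GFP recruitment into spots after receptor activation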
[5] = test system: Streptococcus sp. 'group A'; experiment: growth inhibition of control SK(-) GAS strain, dose response, counter-screen for streptokinase expression inhibitor project, luminescence, kanamycin, BacTiterGlo, confirmation (AID 1900); type: functional, organism-based
[6] = target: T2, Delta-type opioid receptor; experiment: HTS Image-Based Screen for Agonists of the DOR Receptor. [Related pubchem assays (depositor defined):AID1777, AID1786, AID2133]; type: functional
[7] = target: T3, Kappa-type opioid receptor (Homo sapiens, UniProt P41145); type: functional
[8] = target: T1, Beta-galactosidase; type: functional
[9] = target: T3, Kappa-type opioid receptor; type: functional; remark: listed apart in the source
[10] = test system: Streptococcus; experiment: Group A Streptococcus viability loss, dose response, counter-screen for streptokinase expression inhibitor project, luminescence, BacTiterGlo (AID 1915); type: functional, organism-based;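 further: potency for reduction of bacterial viability or growth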
[11] = target: T1, Beta-galactosidase; experiment: beta-galactosidase enzyme inhibitors and activators, dose response, artefact control for CCR6 antagonist project, biochemical, E. coli enzyme, set 3 (AID 504712); type: functional
[12] = target: T4, Hexokinase-1 (Homo sapiens, UniProt P19367); experiment: HK1 enzyme inhibition by HKDC1 hits, SAR follow-up, selectivity assay for HKDC1 inhibitor project, biochemical, set 2, resazurin fluorescence coupled readout (AID 588356); type: functional
T4 sequence (P19367 whole entry): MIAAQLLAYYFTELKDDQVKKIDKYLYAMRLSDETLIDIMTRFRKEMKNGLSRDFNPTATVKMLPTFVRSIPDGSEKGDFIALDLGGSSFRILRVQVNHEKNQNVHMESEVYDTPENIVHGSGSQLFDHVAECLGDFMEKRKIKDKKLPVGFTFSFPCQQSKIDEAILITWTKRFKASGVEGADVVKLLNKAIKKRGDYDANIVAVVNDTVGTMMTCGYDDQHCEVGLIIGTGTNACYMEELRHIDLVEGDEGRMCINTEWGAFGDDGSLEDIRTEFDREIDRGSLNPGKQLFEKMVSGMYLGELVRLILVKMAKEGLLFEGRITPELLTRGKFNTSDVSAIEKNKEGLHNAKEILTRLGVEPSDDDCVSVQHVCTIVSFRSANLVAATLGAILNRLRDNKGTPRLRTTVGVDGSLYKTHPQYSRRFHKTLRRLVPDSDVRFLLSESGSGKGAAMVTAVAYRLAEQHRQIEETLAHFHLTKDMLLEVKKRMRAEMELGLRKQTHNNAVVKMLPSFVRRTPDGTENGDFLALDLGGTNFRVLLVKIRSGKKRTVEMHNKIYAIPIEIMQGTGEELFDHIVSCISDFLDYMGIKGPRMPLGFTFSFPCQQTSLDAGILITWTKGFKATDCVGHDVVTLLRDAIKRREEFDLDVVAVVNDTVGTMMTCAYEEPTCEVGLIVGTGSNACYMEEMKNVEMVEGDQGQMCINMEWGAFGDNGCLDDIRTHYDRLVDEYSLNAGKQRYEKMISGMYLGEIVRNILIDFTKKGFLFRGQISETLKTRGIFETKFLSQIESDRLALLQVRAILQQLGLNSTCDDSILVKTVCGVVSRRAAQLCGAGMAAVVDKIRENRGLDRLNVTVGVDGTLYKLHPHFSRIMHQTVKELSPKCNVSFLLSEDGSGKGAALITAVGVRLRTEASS

[13] = target: T5, Hexokinase HKDC1 (Homo sapiens, UniProt Q2TB90); experiment: HKDC1 hexokinase inhibitors, SAR follow-up, biochemical, set 2 (AID 588355); type: functional
T5 sequence (Q2TB90 whole entry): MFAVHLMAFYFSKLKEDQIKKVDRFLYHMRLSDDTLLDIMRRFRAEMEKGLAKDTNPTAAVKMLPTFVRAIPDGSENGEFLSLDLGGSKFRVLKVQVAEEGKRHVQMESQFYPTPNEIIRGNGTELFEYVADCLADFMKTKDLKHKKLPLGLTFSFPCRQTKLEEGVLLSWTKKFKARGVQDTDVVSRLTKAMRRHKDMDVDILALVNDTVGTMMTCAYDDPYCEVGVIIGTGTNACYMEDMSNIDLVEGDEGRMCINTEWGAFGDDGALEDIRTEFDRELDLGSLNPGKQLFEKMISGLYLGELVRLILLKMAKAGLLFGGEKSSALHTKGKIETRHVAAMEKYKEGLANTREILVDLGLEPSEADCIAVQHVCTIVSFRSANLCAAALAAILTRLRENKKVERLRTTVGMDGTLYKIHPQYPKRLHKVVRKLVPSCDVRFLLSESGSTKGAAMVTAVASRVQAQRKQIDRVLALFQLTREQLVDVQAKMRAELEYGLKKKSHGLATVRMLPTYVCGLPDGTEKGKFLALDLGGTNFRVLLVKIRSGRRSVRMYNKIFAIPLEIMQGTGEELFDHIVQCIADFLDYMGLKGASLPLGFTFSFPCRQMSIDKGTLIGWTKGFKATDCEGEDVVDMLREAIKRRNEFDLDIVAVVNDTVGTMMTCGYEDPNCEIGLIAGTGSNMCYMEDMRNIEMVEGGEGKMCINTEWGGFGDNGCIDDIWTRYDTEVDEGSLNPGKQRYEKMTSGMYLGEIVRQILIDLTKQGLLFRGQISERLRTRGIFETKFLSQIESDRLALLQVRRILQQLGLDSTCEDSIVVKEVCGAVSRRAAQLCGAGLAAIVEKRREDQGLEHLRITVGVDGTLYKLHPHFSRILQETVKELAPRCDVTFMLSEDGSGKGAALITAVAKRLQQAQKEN

[14] = Luminescence Cell-Based Dose Response HTS to Identify Activators of Luciferase Translation or Activity in H4 […] Cells. [Related pubchem assays: 1829 (Project Summary), 1814 (Primary HTS)]; type: functional
[15] = test system: H4; experiment: Luminescence Cell-Based Dose Response HTS to Identify Activators of 5'UTR Stem-Loop Driven Prion Protein mRNA Translation in H4 Neuroglioblastoma Cells. [Related pubchem assays: 1829 (Project Summary), 1814 (Primary HTS)]; type: functional; conditions: Homo sapiens
[16] = target: Troponin, cardiac muscle (Homo sapiens, UniProt P19429+P45379+P63316); experiment: Fluorescence-based biochemical high throughput dose response assay for activators of the calcium sensitivity of cardiac Regulated Thin Filaments (RTF). [Related pubchem assays (depositor defined):AID493008, AID493018, AID504382, AID504383]; type: protein-complex assay
[17] = target: Lysine-specific demethylase 4C (Homo sapiens, UniProt Q9H3R0); experiment: GASC-1 (JMJD2C) histone demethylase inhibitors, dose response, biochemical, DELFIA europium, cherry-picked samples (AID 488835); type: functional
Chain of Lysine-specific demethylase 4C (Q9H3R0 whole entry): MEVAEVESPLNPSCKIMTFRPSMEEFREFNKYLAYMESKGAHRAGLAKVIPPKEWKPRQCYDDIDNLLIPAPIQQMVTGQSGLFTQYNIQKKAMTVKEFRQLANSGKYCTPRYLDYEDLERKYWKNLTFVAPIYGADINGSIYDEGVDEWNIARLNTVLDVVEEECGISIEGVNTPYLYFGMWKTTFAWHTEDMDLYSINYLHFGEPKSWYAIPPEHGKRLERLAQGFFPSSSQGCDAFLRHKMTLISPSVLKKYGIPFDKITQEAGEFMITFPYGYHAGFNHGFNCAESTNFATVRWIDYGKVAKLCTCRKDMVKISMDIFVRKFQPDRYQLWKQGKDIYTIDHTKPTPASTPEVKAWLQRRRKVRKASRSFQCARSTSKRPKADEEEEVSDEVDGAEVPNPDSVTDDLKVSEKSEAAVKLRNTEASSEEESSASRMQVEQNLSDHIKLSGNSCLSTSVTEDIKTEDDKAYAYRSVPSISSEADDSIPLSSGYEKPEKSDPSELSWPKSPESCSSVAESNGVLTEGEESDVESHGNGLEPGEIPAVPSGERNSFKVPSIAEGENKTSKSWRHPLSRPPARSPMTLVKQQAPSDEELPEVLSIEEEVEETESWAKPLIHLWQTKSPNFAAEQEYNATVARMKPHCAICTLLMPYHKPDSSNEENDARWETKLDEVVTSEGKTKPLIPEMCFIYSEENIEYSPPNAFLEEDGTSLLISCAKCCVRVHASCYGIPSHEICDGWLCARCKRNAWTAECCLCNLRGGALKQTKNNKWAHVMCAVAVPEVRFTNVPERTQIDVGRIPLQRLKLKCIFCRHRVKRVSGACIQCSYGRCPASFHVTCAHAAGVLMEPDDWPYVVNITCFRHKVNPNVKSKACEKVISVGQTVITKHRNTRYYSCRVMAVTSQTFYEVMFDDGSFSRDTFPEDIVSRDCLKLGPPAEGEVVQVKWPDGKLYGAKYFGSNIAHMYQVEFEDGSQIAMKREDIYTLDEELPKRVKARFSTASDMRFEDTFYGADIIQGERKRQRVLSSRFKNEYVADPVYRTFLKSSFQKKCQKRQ

T1 sequence (Q8VNN2 whole entry): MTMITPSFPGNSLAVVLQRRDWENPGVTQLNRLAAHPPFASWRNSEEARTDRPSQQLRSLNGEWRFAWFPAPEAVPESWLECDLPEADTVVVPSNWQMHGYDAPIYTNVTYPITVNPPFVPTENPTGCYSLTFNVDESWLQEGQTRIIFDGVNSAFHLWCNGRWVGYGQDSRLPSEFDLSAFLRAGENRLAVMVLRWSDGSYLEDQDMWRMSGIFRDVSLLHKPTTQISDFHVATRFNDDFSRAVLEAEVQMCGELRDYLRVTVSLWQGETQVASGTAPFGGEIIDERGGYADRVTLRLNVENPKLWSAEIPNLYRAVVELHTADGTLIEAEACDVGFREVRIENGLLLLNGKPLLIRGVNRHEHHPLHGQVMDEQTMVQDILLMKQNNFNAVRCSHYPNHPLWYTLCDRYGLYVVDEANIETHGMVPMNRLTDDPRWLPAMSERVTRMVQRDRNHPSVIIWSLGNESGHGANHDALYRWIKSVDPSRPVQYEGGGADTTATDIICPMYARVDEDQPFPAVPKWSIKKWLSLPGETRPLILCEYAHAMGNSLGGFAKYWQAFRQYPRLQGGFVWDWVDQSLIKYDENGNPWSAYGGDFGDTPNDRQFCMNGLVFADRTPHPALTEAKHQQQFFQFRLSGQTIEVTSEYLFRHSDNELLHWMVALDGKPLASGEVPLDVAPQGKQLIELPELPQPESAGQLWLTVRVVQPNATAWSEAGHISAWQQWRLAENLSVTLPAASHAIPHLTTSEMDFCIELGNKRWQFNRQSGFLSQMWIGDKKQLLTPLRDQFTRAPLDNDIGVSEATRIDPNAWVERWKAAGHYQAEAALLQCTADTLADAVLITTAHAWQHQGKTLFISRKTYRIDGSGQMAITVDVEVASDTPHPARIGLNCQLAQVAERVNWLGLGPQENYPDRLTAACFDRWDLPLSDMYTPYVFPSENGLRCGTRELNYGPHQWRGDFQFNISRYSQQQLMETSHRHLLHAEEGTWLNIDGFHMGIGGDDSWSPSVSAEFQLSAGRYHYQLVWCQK
T3 sequence (P41145 whole entry): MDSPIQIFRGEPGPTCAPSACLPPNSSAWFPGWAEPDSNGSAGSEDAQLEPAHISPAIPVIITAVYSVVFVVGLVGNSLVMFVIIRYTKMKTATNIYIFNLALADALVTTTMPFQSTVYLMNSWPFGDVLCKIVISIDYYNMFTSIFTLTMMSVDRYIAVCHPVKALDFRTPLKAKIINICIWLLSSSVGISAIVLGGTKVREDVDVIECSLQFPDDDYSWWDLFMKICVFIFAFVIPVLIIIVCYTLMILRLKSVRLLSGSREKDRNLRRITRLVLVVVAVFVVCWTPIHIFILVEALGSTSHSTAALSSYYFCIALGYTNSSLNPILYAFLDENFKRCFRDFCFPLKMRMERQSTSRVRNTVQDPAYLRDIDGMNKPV
Chain of Type-1 angiotensin II receptor (P30556 whole entry): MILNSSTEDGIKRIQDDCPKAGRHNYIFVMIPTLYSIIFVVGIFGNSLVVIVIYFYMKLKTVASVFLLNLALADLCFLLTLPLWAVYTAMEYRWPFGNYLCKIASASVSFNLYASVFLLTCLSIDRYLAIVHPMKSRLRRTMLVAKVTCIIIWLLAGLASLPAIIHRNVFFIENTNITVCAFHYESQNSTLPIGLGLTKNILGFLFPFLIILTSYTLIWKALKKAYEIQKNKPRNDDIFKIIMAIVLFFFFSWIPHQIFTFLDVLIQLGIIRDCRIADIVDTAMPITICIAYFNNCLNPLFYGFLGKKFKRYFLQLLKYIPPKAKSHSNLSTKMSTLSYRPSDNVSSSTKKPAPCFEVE
T2 sequence (P41143 whole entry): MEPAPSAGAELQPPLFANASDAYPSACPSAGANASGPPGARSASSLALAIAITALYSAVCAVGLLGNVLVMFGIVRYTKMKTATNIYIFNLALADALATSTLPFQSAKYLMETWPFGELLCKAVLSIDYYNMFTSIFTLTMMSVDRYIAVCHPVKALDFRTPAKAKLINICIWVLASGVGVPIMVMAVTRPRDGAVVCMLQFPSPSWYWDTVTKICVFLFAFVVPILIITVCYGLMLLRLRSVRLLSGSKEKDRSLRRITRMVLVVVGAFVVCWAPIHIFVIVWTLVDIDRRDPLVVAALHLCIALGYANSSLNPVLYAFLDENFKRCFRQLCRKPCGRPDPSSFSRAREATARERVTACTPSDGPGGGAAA
Chain of Mu-type opioid receptor (P35372 whole entry): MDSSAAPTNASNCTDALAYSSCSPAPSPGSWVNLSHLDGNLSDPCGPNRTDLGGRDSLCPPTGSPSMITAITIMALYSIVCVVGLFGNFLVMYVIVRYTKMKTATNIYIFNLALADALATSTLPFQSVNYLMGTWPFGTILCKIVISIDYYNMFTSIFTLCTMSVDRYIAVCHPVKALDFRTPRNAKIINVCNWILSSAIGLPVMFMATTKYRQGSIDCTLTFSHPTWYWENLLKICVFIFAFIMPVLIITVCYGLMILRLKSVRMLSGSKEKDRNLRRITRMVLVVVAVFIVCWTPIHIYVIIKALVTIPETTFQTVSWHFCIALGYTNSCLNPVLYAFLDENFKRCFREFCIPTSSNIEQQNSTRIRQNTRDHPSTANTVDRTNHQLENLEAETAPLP

O=C(O)c1cccc(NC(=S)NC(=O)c2cncc(Br)c2)c1
EC50 [1]: > 40 µM (inactive) | IC50 [2]: > 40 µM (not active)

O=C(NC(=S)N1CCN(c2ccc(Cl)cc2[N+](=O)[O-])CC1)c1cccs1
IC50 [3]: > 32 µM (inactive) | EC50 [4]: > 32 µM (inactive) | EC50 [5]: 2.08 µM (active) | EC50 [6]: > 32 µM (inactive) | IC50 [7]: 12.3 µM (active) | EC50 [8]: > 31.5 µM (inactive) | IC50 [9]: > 32 µM | EC50 [10]: 4.3 µM (active) | IC50 [11]: > 66.6 µM (inactive)

COc1cccc(N2CC(C)Cn3c2nc2c3c(=O)n(CCN3CCOCC3)c(=O)n2C)c1 (stereo unspecified)
EC50 [1]: > 40 µM (inactive) | IC50 [2]: > 40 µM (not active)

COc1cc2c(cc1OC)-c1cc(Nc3cccc4ccccc34)nc(=O)n1CC2
IC50 [12]: > 80 µM (inactive) | IC50 [13]: > 80 µM (inactive)

O=c1c2ccc(F)cc2nc(/C=C/c2cccnc2)n1Cc1ccccc1
IC50 [12]: > 80 µM (inactive) | IC50 [13]: > 80 µM (inactive)

CC(/C=N/Nc1ccc2nncn2n1)=C\c1ccccc1
EC50 [14]: 20.7 µM (active) | EC50 [15]: > 120 µM (not active) | EC50 [16]: > 71.5 µM (inactive)

O=C(NCCCNCCCNC(=O)c1ccc(/C=N/O)nc1)c1ccc(/C=N/O)nc1
AC50 [17]: 18 µM (active)
